Assay results as given in patent publication US20210002209A1, “NOVEL CRYSTALLINE FORMS OF TAMIBAROTENE FOR TREATMENT OF CANCER” (TRANSGENEX NANOBIOTECH, INC., priority 2018, published 2021).
≈ marks a conversion by molar mass, not a printed value. Read-outs that look alike come from different tables or passages of the source.

Tests used:
A549 = assay: IC50 studies, monolayer cell culture assay (CellTiter-Glo cell viability, 72 hours); assay type: cell-based; settings: A549, lung
Experimental: (§1) Cancer cell lines listed in Table 1, were subjected for testing anti-cancer potency or the half maximal inhibitory concentration (IC50) of tamibarotene molecular complexes.
(§2) The SK-ES-1, U-2 OS, and SAOS-2 cells were cultured in a growth medium that is ATCC-formulated McCoy's 5a Medium Modified, Catalog No. 30-2007. The PC-3, PANC-1, SK-Mel-5, A549, H460, and H1299 were cultured in a growth medium that is ATCC-formulated Dulbecco's Modified Eagle's Medium (DMEM), Catalog No. 30-2002. The cells were seeded on 96-well microtiter plates with 3500 cells per well and cultured in an incubator (Model 3120, Thermo Scientific, USA) with a constant temperature at 37° C. and 5% carbon dioxide (CO2) gas for 24 hours.
(§3) The new tamibarotene molecular complexes were made into a series with concentration of 200 nM to 40 nM, 8 nM, 1.6 nM, 0.32 nM, and 0.064 nM. […]
(§4) The treated cells in the 96 well plate was then further cultured at the same conditions for 72 hours and then subjected for a final cell viability measurement. The measurement used a homogeneous method to determine the number of metabolically active cells presented in each of treatments. A testing reagent for the measurement is a mixture solution of the CellTiter-Glo® 2.0 reagent (CTG, Promega Cat #G9243, USA) and growth medium in 1:1 ratio in this respect.
(§5) The 96-well plate with the new molecular complex treated cells was taken out from incubator after the 72 hours of incubation, and the treatment solution in each well was removed using a multichannel pipette, and 100 μl of the testing reagent were added into each well. The plate was then placed on a plate shaker for 15 min. The plate was covered with a piece of aluminum foil to protect the CTG luminescence during the shaking time.
(§6) Then 90 μl of the 100 μl testing reagent were transferred into an opaque-walled 96-well plate for the CTG luminescence reading on a plate reader (SynergyH4 Hybrid Reader, Biotek, USA). The luminescence intensity of each treatment was positively correlated with the number of cells survived during the treatments.
(§7) All the treatment data was normalized by comparing with the control samples that had only growth medium without any molecular complexes. The half maximal inhibitory concentration (IC50) data was calculated using the nonlinear regression model and dose-responses (inhibition) curve built in the software. Each of treatments was performed in three replications each time and repeated three times for validation. The IC50 average […] (Avg) and standard deviation (STDV) were calculated based on the three replications.

H1299 = assay: as above; assay type: cell-based
Experimental: as §1, §2, §3, §4, §5, §6, §7

H460 = assay: as above; assay type: cell-based
Experimental: as §1, §2, §3, §4, §5, §6, §7

PC-3 = assay: as above; assay type: cell-based; settings: PC-3, prostate
Experimental: as §1, §2, §3, §4, §5, §6, §7

SAOS = assay: as above; assay type: cell-based; settings: sarcoma
Experimental: as §1, §2, §3, §4, §5, §6, §7

SK-ES-1 = assay: as above; assay type: cell-based
Experimental: as §1, §2, §3, §4, §5, §6, §7

SK-Mel-5 = assay: as above; assay type: cell-based; settings: SK-Mel-5, skin
Experimental: as §1, §2, §3, §4, §5, §6, §7

U-2 OS = assay: as above; assay type: cell-based; settings: sarcoma
Experimental: as §1, §2, §3, §4, §5, §6, §7

[1] = system: sarcoma cell line SK-ES-1; assay: Tumor sphere formation assay; assay type: cell-based; settings: SK-ES-1 spheres, diameter over 50 μm, day 6
Source text: Cancer stem cells (CSCs) are defined as a small subset of cells within a tumor with the ability to self-renew and often drive tumor progression and recurrence after chemotherapy treatment (Zhou et al. (2015) “A Reliable Parameter to Standardize the Scoring of Stem Cell Spheres,” PLOS One 10(5); e0127348). It is important to study the responses of cancer stem cells or the tumors treated with the new molecular complexes. We have assessed CSC growth using tumor sphere formation assay, which involves culturing cancer cells in low attachment plates in serum free media. Sphere size and diameter was measured using ImageJ software and statistical analysis was performed using Graph Pad Prism Software. […]
On the day 6 of seeding, 10 μl of NucBlue Live Cell Stain ReadyProbes (Invitrogen Cat #R37605, USA) were added into each well for staining to visualize the live cells under the blue fluorescent light. […] Then the plate was brought to the Keyence imaging device (Keyence America, All-in-One Fluorescence Microscope BZ-X800, USA) for image scanning. […]
The sphere image area is calculated as a sum of image area of every individual sphere with diameter over 50 μm in each treatment well. […]
The sarcoma spheres were stained with NucBlue Live Cell Stain ReadyProbes (Invitrogen Cat #R37605) and imaged under 4× objective lens on Keyence imaging scanner (Keyence America, All-in-One Fluorescence Microscope BZ-X800).

[2] = cited from earlier work
[3] = Test I, read-out: IC50 Test(I) Avg
[4] = Test II, read-out: IC50 Test (II) Avg
[5] = Test III, read-out: IC50 Test (III) Avg
[6] = H1299, lung, Test I, read-out: IC50 Test(I) Avg
[7] = H1299, lung, Test II, read-out: IC50 Test (II) Avg
[8] = H1299, lung, Test III, read-out: IC50 Test (III) Avg
[9] = H460, lung, Test I, read-out: IC50 Test(I) Avg
[10] = H460, lung, Test II, read-out: IC50 Test (II) Avg
[11] = H460, lung, Test III, read-out: IC50 Test (III) Avg
[12] = Homo sapiens, Test I, read-out: IC50 Test(I) Avg
[13] = Homo sapiens, Test II, read-out: IC50 Test (II) Avg
[14] = Homo sapiens, Test III, read-out: IC50 Test (III) Avg

CC1(C)CCC(C)(C)c2cc(NC(=O)c3ccc(C(=O)O)cc3)ccc21.O=C(O)c1cc(O)c(O)c(O)c1 [TAM-gallic acid]
IC50 (A549; [3]): 39.9 µM | IC50 (A549; [4]): 43.3 µM | IC50 (A549; [5]): 39.9 µM | IC50 (H1299; [6]): 11.2 µM | IC50 (H1299; [7]): 24.8 µM | IC50 (H1299; [8]): 11.7 µM | IC50 (H460; [9]): 42 µM | IC50 (H460; [10]): 41.9 µM | IC50 (H460; [11]): 41.3 µM | IC50 (PC-3; [3]): 81 µM | IC50 (PC-3; [4]): 90.3 µM | IC50 (PC-3; [5]): 108 µM | IC50 (SAOS; [3]): 11.6 µM | IC50 (SAOS; [4]): 9.98 µM | IC50 (SAOS; [5]): 14.9 µM | IC50 (SK-ES-1; SK-ES-1, sarcoma, Test I, read-out: IC50 Test(I) Avg): 10.1 µM | IC50 (SK-ES-1; SK-ES-1, sarcoma, Test II, read-out: IC50 Test (II) Avg): 5.94 µM | IC50 (SK-ES-1; SK-ES-1, sarcoma, Test III, read-out: IC50 Test (III) Avg): 6.76 µM | IC50 (SK-Mel-5; [3]): 47.5 µM | IC50 (SK-Mel-5; [4]): 64.2 µM | IC50 (SK-Mel-5; [5]): 88.5 µM | IC50 (U-2 OS; [3]): 16.4 µM | IC50 (U-2 OS; [4]): 13 µM | IC50 (U-2 OS; [5]): 10.6 µM | tumor spheres size compared with the parent molecule [1]: reduced tumor spheres size

CC1(C)CCC(C)(C)c2cc(NC(=O)c3ccc(C(=O)O)cc3)ccc21 [TAM, 4-[(5,5,8,8-tetramethyl-5,6,7,8-tetrahydronaphthalen-2-yl)carbamoyl]benzoic acid, reference compound]
IC50 (A549; [12]): 59.9 µM | IC50 (A549; [13]): 60.6 µM | IC50 (A549; [14]): 57.8 µM | IC50 (H1299; Homo sapiens, NCI-H1299, H1299, lung, Test I, read-out: IC50 Test(I) Avg): 78.9 µM | IC50 (H1299; Homo sapiens, NCI-H1299, H1299, lung, Test II, read-out: IC50 Test (II) Avg): 67.3 µM | IC50 (H1299; Homo sapiens, NCI-H1299, H1299, lung, Test III, read-out: IC50 Test (III) Avg): 83 µM | IC50 (H460; Homo sapiens, NCI-H460, H460, lung, Test I, read-out: IC50 Test(I) Avg): 69.3 µM | IC50 (H460; Homo sapiens, NCI-H460, H460, lung, Test II, read-out: IC50 Test (II) Avg): 58.3 µM | IC50 (H460; Homo sapiens, NCI-H460, H460, lung, Test III, read-out: IC50 Test (III) Avg): 67.1 µM | IC50 (PC-3; [12]): > 100 µM | IC50 (PC-3; [13]): > 100 µM | IC50 (PC-3; [14]): > 100 µM | IC50 (SAOS; [3]): 55.4 µM | IC50 (SAOS; [4]): 46.5 µM | IC50 (SAOS; [5]): > 100 µM | IC50 (SK-ES-1; Homo sapiens, SK-ES1, SK-ES-1, sarcoma, Test I, read-out: IC50 Test(I) Avg): > 100 µM | IC50 (SK-ES-1; Homo sapiens, SK-ES1, SK-ES-1, sarcoma, Test II, read-out: IC50 Test (II) Avg): 73.2 µM | IC50 (SK-ES-1; Homo sapiens, SK-ES1, SK-ES-1, sarcoma, Test III, read-out: IC50 Test (III) Avg): 72.5 µM | IC50 (SK-Mel-5; [12]): > 100 µM | IC50 (SK-Mel-5; [13]): > 100 µM | IC50 (SK-Mel-5; [14]): > 100 µM | IC50 (U-2 OS; Homo sapiens, U2OS, Test I, read-out: IC50 Test(I) Avg): > 100 µM | IC50 (U-2 OS; Homo sapiens, U2OS, Test II, read-out: IC50 Test (II) Avg): 77.7 µM | IC50 (U-2 OS; Homo sapiens, U2OS, Test III, read-out: IC50 Test (III) Avg): 69.7 µM | solubility in DMF, methanol, ethanol, DMSO, and other organic solvents [2]: soluble | solubility in acetonitrile, water, and various other buffer solutions ([2]; pH 3~7, from CN101200435 (B)): insoluble | water solubility ([2]; water, drug bank): 0.575 µg/mL (≈ 1.64 µM)

CC1(C)CCC(C)(C)c2cc(NC(=O)c3ccc(C(=O)O)cc3)ccc21.NC(=O)c1cccnc1 [TAM-nicotinamide]
IC50 (A549; [3]): 56.6 µM | IC50 (A549; [4]): 59.1 µM | IC50 (A549; [5]): 49.8 µM | IC50 (H1299; [6]): 49.7 µM | IC50 (H1299; [7]): 55.9 µM | IC50 (H1299; [8]): 53.9 µM | IC50 (H460; [9]): 56.6 µM | IC50 (H460; [10]): 51.1 µM | IC50 (H460; [11]): 50.3 µM

CC1(C)CCC(C)(C)c2cc(NC(=O)c3ccc(C(=O)O)cc3)ccc21.O=C(O)c1ccccc1-c1ccccc1C(=O)O [TAM-diphenic acid]
IC50 (A549; [3]): 21.7 µM | IC50 (A549; [4]): 38.9 µM | IC50 (A549; [5]): 26.6 µM | IC50 (H1299; [6]): 40.8 µM | IC50 (H1299; [7]): 41.4 µM | IC50 (H1299; [8]): 39.9 µM | IC50 (H460; [9]): 35 µM | IC50 (H460; [10]): 34.7 µM | IC50 (H460; [11]): 32.3 µM

CC1(C)CCC(C)(C)c2cc(NC(=O)c3ccc(C(=O)O)cc3)ccc21.O=C(O)c1ccc(-c2ccccc2)cc1 [TAM-biphenyl-4-carboxylic acid]
IC50 (A549; [3]): 49.3 µM | IC50 (A549; [4]): 41.3 µM | IC50 (A549; [5]): 46.3 µM | IC50 (H1299; [6]): 65.5 µM | IC50 (H1299; [7]): 59.8 µM | IC50 (H1299; [8]): 65.3 µM | IC50 (H460; [9]): 56 µM | IC50 (H460; [10]): 51.7 µM | IC50 (H460; [11]): 55.2 µM | IC50 (SAOS; [3]): 43.5 µM | IC50 (SAOS; [4]): 37.1 µM | IC50 (SAOS; [5]): > 100 µM
